The assay deals with AKR/Lw mice, AKR lymphoma ip, median survival T/C. The experiment in a line: NCI In Vivo Anticancer Drug Screen. Data for tumor model Lymphoma AKR (Transplanted) (intraperitoneal) in AKR/Lw mice. The conditions noted are these: endpoint: median survival time, higher = longer survival. Here is the method:
The antitumor activity of compounds was measured in mice bearing transplantable tumors. Survival or tumor size were measured and the results are expressed as the measurement made in the treated group (T) divided by the measurement made in the vehicle treated control group (C). The tumor model used in this assay is Lymphoma AKR (Transplanted) (intraperitoneal) in AKR/Lw mice

[1] abbreviates: dose: 25.0 mg/kg/injection, schedule: Q04DX003 (ip), vehicle: saline.
[2] abbreviates: dose: 50.0 mg/kg/injection, schedule: Q04DX003 (ip), vehicle: saline.
The mark [3] stands for this setting: dose: 100.0 mg/kg/injection, schedule: Q01DX001 (ip), vehicle: saline.

Several values for one entry are separate records, joined by “and”; a condition that tells them apart may be missing. Equal entries are not always repeated. Inconclusive results and toxic doses are left out.

For the molecule `NC(CSC(c1ccccc1)(c1ccccc1)c1ccccc1)C(=O)O` (configuration not stated), the T/C was 111 % of control (dose: 0.6 mg/kg/injection, schedule: Q01DX009 (ip), vehicle: Klucel (hydroxypropylcellulose) (HPC)); 114 % of control and 117 % of control (dose: 1.2 mg/kg/injection, schedule: Q01DX009 (ip), vehicle: Klucel (hydroxypropylcellulose) (HPC)); 117 % of control (dose: 2.5 mg/kg/injection, schedule: Q01DX009 (ip), vehicle: Klucel (hydroxypropylcellulose) (HPC)); 88 % of control and 120 % of control (dose: 5.0 mg/kg/injection, schedule: Q01DX009 (ip), vehicle: Klucel (hydroxypropylcellulose) (HPC)); 94 % of control (dose: 6.0 mg/kg/injection, schedule: Q01DX009 (ip), vehicle: Klucel (hydroxypropylcellulose) (HPC)); 108 % of control (dose: 6.2 mg/kg/injection, schedule: Q04DX003 (ip), vehicle: Klucel (hydroxypropylcellulose) (HPC)). Further, the T/C was 94 % of control (dose: 6.25 mg/kg/injection, schedule: Q01DX009 (ip), vehicle: Klucel (hydroxypropylcellulose) (HPC)); 102 % of control (dose: 10.0 mg/kg/injection, schedule: Q01DX009 (ip), vehicle: Klucel (hydroxypropylcellulose) (HPC)); 88 % of control (dose: 12.0 mg/kg/injection, schedule: Q01DX009 (ip), vehicle: Klucel (hydroxypropylcellulose) (HPC)); 94 % of control (dose: 12.5 mg/kg/injection, schedule: Q01DX009 (ip), vehicle: Klucel (hydroxypropylcellulose) (HPC)); 91 % of control and 94 % of control and 102 % of control (dose: 12.5 mg/kg/injection, schedule: Q04DX003 (ip), vehicle: Klucel (hydroxypropylcellulose) (HPC)); 102 % of control and 108 % of control (dose: 20.0 mg/kg/injection, schedule: Q01DX009 (ip), vehicle: Klucel (hydroxypropylcellulose) (HPC)). Further, the T/C is 91 % of control and 100 % of control (dose: 25.0 mg/kg/injection, schedule: Q01DX009 (ip), vehicle: Klucel (hydroxypropylcellulose) (HPC)); 94 % of control and 97 % of control and 109 % of control (dose: 25.0 mg/kg/injection, schedule: Q01DX009 (ip), vehicle: saline); 94 % of control and 97 % of control (dose: 25.0 mg/kg/injection, schedule: Q04DX003 (ip), vehicle: Klucel (hydroxypropylcellulose) (HPC)); 102 % of control under setting [1]; 102 % of control and 103 % of control (2×) (dose: 37.5 mg/kg/injection, schedule: Q01DX001 (ip), vehicle: saline); 105 % of control (dose: 50.0 mg/kg/injection, schedule: Q01DX009 (ip), vehicle: saline). Further, the T/C reads like this: under setting [2], 97 % of control; (dose: 75.0 mg/kg/injection, schedule: Q01DX001 (ip), vehicle: saline) 95 % of control and 103 % of control and 110 % of control; (dose: 100.0 mg/kg/injection, schedule: Q01DX001 (ip), vehicle: Klucel (hydroxypropylcellulose) (HPC)) 97 % of control; under setting [3], 100 % of control; (dose: 100.0 mg/kg/injection, schedule: Q04DX003 (ip), vehicle: saline) 91 % of control; (dose: 150.0 mg/kg/injection, schedule: Q01DX001 (ip), vehicle: saline) 90 % of control and 105 % of control and 106 % of control. Moreover, the T/C is, setting by setting: (dose: 200.0 mg/kg/injection, schedule: Q01DX001 (ip), vehicle: Klucel (hydroxypropylcellulose) (HPC)) 109 % of control; (dose: 400.0 mg/kg/injection, schedule: Q01DX001 (ip), vehicle: Klucel (hydroxypropylcellulose) (HPC)) 118 % of control.

`OCC1OC(n2cnc3c(Cl)ncnc32)C(O)C1O` (configuration not stated): the T/C (dose: 6.2 mg/kg/injection, schedule: Q01DX009 (ip), vehicle: saline) was 100 % of control; the T/C (dose: 12.5 mg/kg/injection, schedule: Q01DX009 (ip), vehicle: saline) is 94 % of control and 96 % of control and 105 % of control; the T/C under setting [1] was 93 % of control; the T/C (dose: 50.0 mg/kg/injection, schedule: Q01DX001 (ip), vehicle: saline) was 100 % of control; the T/C under setting [2] is 100 % of control and 113 % of control and 116 % of control; the T/C under setting [3] was 94 % of control and 102 % of control and 110 % of control. Also, the T/C by setting is: (dose: 100.0 mg/kg/injection, schedule: Q04DX003 (ip), vehicle: other) 88 % of control; (dose: 150.0 mg/kg/injection, schedule: Q04DX003 (ip), vehicle: saline) 100 % of control; (dose: 200.0 mg/kg/injection, schedule: Q01DX009 (ip), vehicle: saline) 87 % of control and 101 % of control and 102 % of control; (dose: 200.0 mg/kg/injection, schedule: Q04DX003 (ip), vehicle: other) 113 % of control; (dose: 250.0 mg/kg/injection, schedule: Q04DX003 (ip), vehicle: saline) 118 % of control; (dose: 400.0 mg/kg/injection, schedule: Q01DX009 (ip), vehicle: saline) 90 % of control and 96 % of control. In addition, the T/C was 119 % of control and 123 % of control (dose: 400.0 mg/kg/injection, schedule: Q04DX003 (ip), vehicle: other); 88 % of control (dose: 500.0 mg/kg/injection, schedule: Q04DX003 (ip), vehicle: saline); 90 % of control and 92 % of control (dose: 600.0 mg/kg/injection, schedule: Q01DX001 (ip), vehicle: saline); 90 % of control (2×) and 113 % of control (dose: 600.0 mg/kg/injection, schedule: Q04DX003 (ip), vehicle: saline).

With `CC[C@](O)(C(=O)O)c1cc2n(c(=O)c1CO)Cc1cc3ccccc3nc1-2`, the T/C was 94 % of control (dose: 0.02 mg/kg/injection, schedule: Q01DX009 (ip), vehicle: saline); 105 % of control (dose: 0.05 mg/kg/injection, schedule: Q01DX009 (ip), vehicle: saline); 106 % of control (dose: 0.06 mg/kg/injection, schedule: Q01DX009 (ip), vehicle: saline); 100 % of control and 103 % of control (dose: 0.1 mg/kg/injection, schedule: Q01DX009 (ip), vehicle: saline); 100 % of control and 114 % of control (dose: 0.12 mg/kg/injection, schedule: Q01DX009 (ip), vehicle: saline); 106 % of control (dose: 0.15 mg/kg/injection, schedule: Q01DX009 (ip), vehicle: saline). Also, the T/C was 106 % of control (dose: 0.35 mg/kg/injection, schedule: Q01DX009 (ip), vehicle: saline); 101 % of control (dose: 0.37 mg/kg/injection, schedule: Q01DX009 (ip), vehicle: saline); 118 % of control (dose: 0.4 mg/kg/injection, schedule: Q01DX009 (ip), vehicle: saline); 96 % of control (dose: 0.6 mg/kg/injection, schedule: Q01DX009 (ip), vehicle: saline); 88 % of control (dose: 0.6 mg/kg/injection, schedule: Q04DX003 (ip), vehicle: saline); 117 % of control (dose: 0.75 mg/kg/injection, schedule: Q01DX009 (ip), vehicle: saline). Further, the T/C is 97 % of control and 104 % of control (dose: 1.2 mg/kg/injection, schedule: Q04DX003 (ip), vehicle: saline); 121 % of control (dose: 1.25 mg/kg/injection, schedule: Q01DX001 (ip), vehicle: saline); 107 % of control (dose: 2.5 mg/kg/injection, schedule: Q01DX001 (ip), vehicle: saline); 88 % of control and 113 % of control (dose: 2.5 mg/kg/injection, schedule: Q01DX009 (ip), vehicle: saline); 106 % of control (dose: 3.7 mg/kg/injection, schedule: Q04DX003 (ip), vehicle: saline); 102 % of control and 114 % of control (dose: 5.0 mg/kg/injection, schedule: Q01DX001 (ip), vehicle: saline). Moreover, the T/C runs as follows: (dose: 7.5 mg/kg/injection, schedule: Q04DX003 (ip), vehicle: saline) 112 % of control; (dose: 12.5 mg/kg/injection, schedule: Q01DX001 (ip), vehicle: saline) 120 % of control; (dose: 15.0 mg/kg/injection, schedule: Q04DX003 (ip), vehicle: saline) 150 % of control; (dose: 18.0 mg/kg/injection, schedule: Q01DX001 (ip), vehicle: saline) 95 % of control; (dose: 30.0 mg/kg/injection, schedule: Q04DX003 (ip), vehicle: saline) 103 % of control and 115 % of control; (dose: 40.0 mg/kg/injection, schedule: Q01DX001 (ip), vehicle: saline) 113 % of control. For the same molecule, the T/C (dose: 80.0 mg/kg/injection, schedule: Q01DX001 (ip), vehicle: saline) is 97 % of control.

The values are drawn from PubChem BioAssay AID190 (DTP/NCI, 2004).
